According to PMC8910920 (International Journal of Molecular Sciences, 2022):

Experiments:
rTRPM8 = molecular target: T1, rTRPM8 (Rattus norvegicus, UniProt Q8R455); assay: Ca2+ microfluorography assay, HEK293 cells expressing rTRPM8, menthol activation; format: cell-based
T1 construct: expressed in transfected cells
Experimental: This represents a similar activity as β–lactam 2 and a somewhat higher potency than the model TRPM8 antagonists AMTB.
To measure the effect of the compounds against TRPM8 activity we used microfluorometry-based calcium flux assays with Fluo-4 NW Ca^2+ dye and fluorescence as described in [30]. Briefly, human embryonic kidney cell line (HEK293) cells stably transfected with rTRPM8 or hTRPM8 were seeded in 96-well plates at a cell density of 30,000 cells. After 2 days the medium was replaced with 100 μL of the dye, Fluo-4 NW, loading solution supplemented with probenecid 2.5 mM and incubated 1 h at 37 °C. The TRPM8 activity was measured using POLASTAR plate reader (BMG Labtech) setting the excitation wavelength at 485 nm and the emission wavelength at 520 nm. The baseline fluorescence was recorded for 3 cycles before the addition of vehicle compound at different concentrations and the antagonist, 10 μM AMTB. Fluorescence intensity was recorded during 7 more cycles and 100 μM menthol was added. Fluorescence intensity was recorded during 10 more cycles.
Data analysis: The Z-factor was calculated in each assay using the following equation: […]. In all the experiments, the Z-factor was ≥0.5. The effect of the compounds against TRPM8 activity was determined by normalizing their effect on the maximum fluorescence observed after application of 100 μM menthol. Decrease in menthol signal was expressed as percentage of inhibition (%). All data are expressed as the mean ± standard deviation (SD). Data are expressed as the concentration exerting a half-maximal inhibition of agonist-induced [Ca^2+]i elevation (IC50), which was calculated again using GraphPad Prism® software. All determinations were performed in triplicate (n = 3) in 3 independent experiments (N = 3).

hTRPV1 = molecular target: T2, hTRPV1 (Homo sapiens, UniProt Q8NER1); assay: hTRPV1 agonist assay (Ca2+ fluorimetry, CHO cells); format: cell-based; details: 10 μM
T2 construct: host or cells: CHO
Experimental: These studies were subcontracted to Eurofins-CEREP or Eurofins-PANLABS. Briefly, agonists and antagonist assays were performed in cell cultures overexpressing the corresponding channel (CHO: TRPV1 and TRPA1; HEK293: TRPV3 and ASIC3). In vitro pharmacology, cellular channel functional assays: the compound was prepared in assay buffer to the final concentration, 10 μM. The compound wells, reference agonist and background vehicle controls were prepared in DMSO at 0.3%. The reference agonist for each Ion Channel assayed was prepared in a similar manner to serve as the assay control. […] The agonist assay was conducted on fluorimeter instruments where the test compound, vehicle controls, and reference agonist were added to the assay plate after a fluorescence baseline was established. […] For the antagonist assay, the compound was pre-incubated for five minutes at room temperature, and then challenged with the EC80 concentration of the reference agonist after establishment of a fluorescence baseline. […] Binding assay results are expressed as a percent of control specific binding. […] Aqueous solubility (μM) was determined by comparing the peak area of the principal peak in a calibration standard (200 μM) containing organic solvent (methanol/water, 60/40, v/v) with the peak area of the corresponding peak in a buffer sample. […] The amount of compound in organic phase was calculated by subtraction. […]

T1 sequence (Q8R455 whole entry): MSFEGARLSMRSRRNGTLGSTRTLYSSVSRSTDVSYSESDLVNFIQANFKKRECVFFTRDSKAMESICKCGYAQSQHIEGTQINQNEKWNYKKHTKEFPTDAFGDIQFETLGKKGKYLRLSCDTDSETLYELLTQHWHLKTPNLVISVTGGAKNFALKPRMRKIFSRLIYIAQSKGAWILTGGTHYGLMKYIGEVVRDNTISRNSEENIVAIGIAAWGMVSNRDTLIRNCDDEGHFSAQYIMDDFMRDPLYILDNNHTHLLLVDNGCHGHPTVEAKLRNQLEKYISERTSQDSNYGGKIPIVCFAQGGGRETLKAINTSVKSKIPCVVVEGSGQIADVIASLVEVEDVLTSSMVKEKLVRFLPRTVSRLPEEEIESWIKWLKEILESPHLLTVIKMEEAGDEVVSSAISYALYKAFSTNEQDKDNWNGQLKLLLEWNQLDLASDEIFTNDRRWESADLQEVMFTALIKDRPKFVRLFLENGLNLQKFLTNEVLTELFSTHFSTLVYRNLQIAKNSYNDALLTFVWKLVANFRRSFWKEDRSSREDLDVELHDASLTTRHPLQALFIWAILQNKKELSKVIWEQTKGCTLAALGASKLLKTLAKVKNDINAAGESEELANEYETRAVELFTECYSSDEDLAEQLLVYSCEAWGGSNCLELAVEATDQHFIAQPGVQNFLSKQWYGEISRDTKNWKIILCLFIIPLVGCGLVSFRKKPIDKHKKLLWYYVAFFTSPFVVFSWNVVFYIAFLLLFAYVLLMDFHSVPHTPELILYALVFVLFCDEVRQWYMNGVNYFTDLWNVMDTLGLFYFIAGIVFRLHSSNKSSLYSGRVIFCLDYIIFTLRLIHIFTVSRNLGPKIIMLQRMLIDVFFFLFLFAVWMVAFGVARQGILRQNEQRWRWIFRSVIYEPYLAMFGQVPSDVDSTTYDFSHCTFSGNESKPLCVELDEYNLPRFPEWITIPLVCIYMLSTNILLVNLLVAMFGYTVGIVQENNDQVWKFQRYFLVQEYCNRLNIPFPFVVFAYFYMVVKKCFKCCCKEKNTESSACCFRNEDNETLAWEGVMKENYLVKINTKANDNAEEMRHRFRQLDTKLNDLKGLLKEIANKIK
T2 sequence (Q8NER1 whole entry): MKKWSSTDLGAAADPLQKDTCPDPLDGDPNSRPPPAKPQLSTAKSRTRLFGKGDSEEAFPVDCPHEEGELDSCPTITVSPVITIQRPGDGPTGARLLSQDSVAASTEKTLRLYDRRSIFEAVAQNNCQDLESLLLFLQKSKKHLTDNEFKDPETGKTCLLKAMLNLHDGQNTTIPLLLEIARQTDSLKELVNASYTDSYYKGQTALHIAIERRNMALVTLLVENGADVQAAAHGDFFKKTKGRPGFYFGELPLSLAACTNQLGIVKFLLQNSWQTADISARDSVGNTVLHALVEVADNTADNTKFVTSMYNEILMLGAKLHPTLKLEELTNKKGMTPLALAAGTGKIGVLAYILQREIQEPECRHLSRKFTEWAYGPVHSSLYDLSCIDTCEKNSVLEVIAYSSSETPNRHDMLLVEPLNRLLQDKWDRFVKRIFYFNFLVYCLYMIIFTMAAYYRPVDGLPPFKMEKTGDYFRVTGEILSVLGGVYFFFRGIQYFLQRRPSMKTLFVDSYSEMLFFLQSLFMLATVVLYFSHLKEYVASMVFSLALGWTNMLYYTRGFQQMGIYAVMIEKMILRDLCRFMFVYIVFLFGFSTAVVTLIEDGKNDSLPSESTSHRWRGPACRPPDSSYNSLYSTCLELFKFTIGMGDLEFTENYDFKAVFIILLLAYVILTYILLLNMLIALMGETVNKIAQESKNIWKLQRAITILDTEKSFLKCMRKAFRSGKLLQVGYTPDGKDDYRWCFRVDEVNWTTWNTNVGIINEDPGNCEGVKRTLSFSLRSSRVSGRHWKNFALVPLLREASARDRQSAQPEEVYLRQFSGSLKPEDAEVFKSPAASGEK

## C[C@@H]1C(=O)N(C[C@H](Cc2ccccc2)N(Cc2ccccc2)Cc2ccccc2)[C@]1(Cc1ccccc1)C(=O)OC(C)(C)C [RGM8-51, 4(S)-Benzyl-3S-methyl-4-(tert-butoxy)carbonyl-1-[(2′S-dibenzylamino-3′-phenyl)prop-1′-yl]-2-oxoazetidine]
rTRPM8; HEK293-rTRPM8, 100 μM menthol
  IC50: 1.06 ± 1.21 µM
rTRPM8; HEK293 cells expressing rat or human TRPM8
  ability to activate TRPM8 channels (agonist activity): did not have any ability to activate TRPM8 channels
hTRPV1
  hTRPV1 ago. (%): 31.3 ± 3.6%
